Test results as given in paper PMC10140934, “In Vitro and In Silico Studies on Angiotensin I-Converting Enzyme Inhibitory Peptides Found in Hydrophobic Domains of Porcine Elastin” (Molecules, 2023).
Residues, ends and D or L forms follow the SMILES beside them. No end group written: not given here.

Molecular target: T1, ACE (from rabbit lung) (Oryctolagus cuniculus, UniProt P12822)
T1 construct: ACE (20 mU/mL, from rabbit lung) was used for the enzyme solution; from tissue; host or cells: rabbit lung
T1 sequence (P12822 34-1310): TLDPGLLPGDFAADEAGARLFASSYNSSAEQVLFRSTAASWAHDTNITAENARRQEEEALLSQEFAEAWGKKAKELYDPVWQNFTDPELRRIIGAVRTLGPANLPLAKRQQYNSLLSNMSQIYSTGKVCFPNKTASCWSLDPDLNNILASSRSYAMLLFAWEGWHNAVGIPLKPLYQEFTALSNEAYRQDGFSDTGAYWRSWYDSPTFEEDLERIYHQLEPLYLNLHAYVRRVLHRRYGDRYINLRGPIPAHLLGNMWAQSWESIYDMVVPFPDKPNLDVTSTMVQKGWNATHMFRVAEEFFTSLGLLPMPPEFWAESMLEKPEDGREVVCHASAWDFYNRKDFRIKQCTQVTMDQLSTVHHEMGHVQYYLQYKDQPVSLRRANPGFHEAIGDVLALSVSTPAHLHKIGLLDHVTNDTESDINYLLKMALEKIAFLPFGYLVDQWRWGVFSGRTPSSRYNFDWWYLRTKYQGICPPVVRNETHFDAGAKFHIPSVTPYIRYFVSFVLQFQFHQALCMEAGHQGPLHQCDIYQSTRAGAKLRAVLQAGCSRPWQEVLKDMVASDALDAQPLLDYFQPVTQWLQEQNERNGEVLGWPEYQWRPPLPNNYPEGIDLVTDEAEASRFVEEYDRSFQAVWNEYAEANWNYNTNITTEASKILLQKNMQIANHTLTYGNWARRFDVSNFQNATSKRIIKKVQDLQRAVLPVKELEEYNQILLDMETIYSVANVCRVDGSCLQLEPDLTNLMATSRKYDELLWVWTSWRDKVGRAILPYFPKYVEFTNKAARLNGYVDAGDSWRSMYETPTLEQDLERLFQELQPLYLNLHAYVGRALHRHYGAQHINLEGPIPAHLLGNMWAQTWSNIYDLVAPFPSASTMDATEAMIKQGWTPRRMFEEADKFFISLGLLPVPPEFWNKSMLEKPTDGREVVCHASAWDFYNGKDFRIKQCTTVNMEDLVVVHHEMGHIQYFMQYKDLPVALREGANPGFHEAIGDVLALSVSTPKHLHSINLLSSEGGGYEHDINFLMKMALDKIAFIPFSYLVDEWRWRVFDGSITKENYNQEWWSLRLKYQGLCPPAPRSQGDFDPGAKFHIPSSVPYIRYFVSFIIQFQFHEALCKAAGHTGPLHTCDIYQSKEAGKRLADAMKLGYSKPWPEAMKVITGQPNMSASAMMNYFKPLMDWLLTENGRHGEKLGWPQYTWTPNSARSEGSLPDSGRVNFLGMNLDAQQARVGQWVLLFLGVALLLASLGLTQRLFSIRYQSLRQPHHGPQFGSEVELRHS
Test: Assay of ACE inhibitory activity (HHL substrate, o-phthalaldehyde fluorescence)
Type: biochemical
Conditions: pH 8.3, 37 °C, n = 3
Procedure: The ACE inhibitory activity of newly synthesized peptides was measured under the following condition by using Nakano et al.’s method. ACE (20 mU/mL, from rabbit lung) was used for the enzyme solution and 100 mM hippuryl-histidyl-leucine (HHL) was used for the substrate solution. Each solution was prepared in 0.1 M HEPES buffer (pH 8.3, 0.3 M NaCl, 0.01% Triton-X). Both enzyme solution (25 μL) and sample solution (20 μL) were preincubated at 37 °C for 5 min. A total of 100 mM HHL substrate solution (25 μL) was added and incubated at 37 °C for 30 min. The reaction was stopped by the addition of 100 mM NaOH solution (25 μL), followed by the addition of 1% o-phthalaldehyde in methanol (25 μL) and maintained at room temperature for 20 min. Next, 100 mM HCl (25 μL) was added and further maintained at room temperature for 10 min. The amount of His-Leu cleaved from the substrate by ACE was determined by measuring the fluorescence intensity of the product reacted with o-phthalaldehyde (excitation wavelength 370 nm, emission wavelength 460 nm) in a microplate reader. ACE inhibitory activity was calculated by the following formula:a ACE inhibitory activity (%) = [1 − (a − c)/(b − d)] × 100(1) where a is the fluorescence intensity in the presence of both ACE and the inhibitor, b is the fluorescence intensity in the presence of ACE without the inhibitor, c is the fluorescence intensity in the presence of the inhibitor without ACE, and d is the fluorescence intensity in the absence of both ACE and the inhibitor. ACE inhibitory activity was expressed by IC50 value: the concentration of inhibition required to inhibit 50% of the ACE activity, and each IC50 value was measured three times.

Row | IC50 [µM] | Compound
1 | 326 | CC(C)[C@H](N)C(=O)N[C@@H](C)C(=O)O [VA] (H-Val-Ala-OH)
2 | 1 | CC(C)[C@H](N)C(=O)N[C@@H](C)C(=O)N1CCC[C@H]1C(=O)O [VAP] (H-Val-Ala-Pro-OH)
3 | 10.4 | CC(C)[C@H](N)C(=O)N[C@@H](CO)C(=O)N1CCC[C@H]1C(=O)O [VSP] (H-Val-Ser-Pro-OH)

Continued, compound first:

Row | Compound | IC50 [µM]
4 | CC(C)C[C@H](NC(=O)CN)C(=O)NCC(=O)O [GLG] (H-Gly-Leu-Gly-OH) | 485
5 | CC(C)[C@H](NC(=O)CN)C(=O)NCC(=O)O [GVG] (H-Gly-Val-Gly-OH) | 369
6 | C[C@H](N)C(=O)N1CCC[C@H]1C(=O)O [AP] (H-Ala-Pro-OH) | 230
7 | C[C@H](NC(=O)CN)C(=O)N1CCC[C@H]1C(=O)O [GAP] (H-Gly-Ala-Pro-OH) | 35
8 | C[C@@H](O)[C@H](N)C(=O)N[C@@H](CCCNC(=N)N)C(=O)N1CCC[C@H]1C(=O)O [TRP] (H-Thr-Arg-Pro-OH) | 1.3
9 | VAPGVG [VAPGVG] | 906
